Test results from paper PMC8829777 (Molecular Therapy. Methods & Clinical Development, 2022).

Tested on: PBMCs
Assay: IL-2 ELISpot of in vitro expanded PBMCs
Format: cell-based, human
Settings: peptides from other AAV serotypes; PBMCs from four healthy individuals; Figure S11

**Q.** For FTVDNNGLY [AAV1 (6)_713-721 N718], which “IL-2 response / secretion” value is on record?
**A.** The value was “decreased IL-2 response”.
